Assay results reported in the supplement of paper PMC10331698.
± gives the standard deviation of the averaged measurements.

Key:
Experiment in all cases: level (log10 ratio to DMSO vehicle control); higher = higher biomarker level / cell amount than vehicle control
[1] = compound: O=S(=O)(O)CCC(F)(F)C(F)(F)C(F)(F)C(F)(F)C(F)(F)C(F)(F)F [6:2 Fluorotelomer sulfonic acid]; settings: in DMSO
Protocol: (§1)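 BioMAP Diversity Plus panel of 12 human primary cell co-culture systems (3C, 4H, LPS, SAg, BT, BF4T, BE3C, CASM3C, HDF3CGF, KF3CT, MyoF, Mphg). Compounds were added 1 h before stimulation and left for 24 h (MyoF 48 h; BT 72 h for soluble read-outs or 6 d for IgG). Biomarkers were read by ELISA, cytotoxicity by SRB, PBMC viability and proliferation by Alamar Blue. Each well value was divided by the mean of 8 DMSO control wells on the same plate and log10 transformed; duplicate blinded samples were tested at 4 concentrations.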

[2] = compound: O=S(=O)(Cl)C(F)(F)C(F)(F)C(F)(F)C(F)(F)C(F)(F)C(F)(F)C(F)(F)C(F)(F)F [Perfluoro-1-octanesulfonyl chloride]; settings: in DMSO
Protocol: as §1

Heptafluorobutyl iodide = compound: FC(F)(F)C(F)(F)C(F)(F)CI [Heptafluorobutyl iodide]; settings: in DMSO
Protocol: as §1

[3] = compound: O=S(=O)(F)C(F)(F)C(F)(F)C(F)(F)C(F)(F)C(F)(F)C(F)(F)C(F)(F)C(F)(F)F [Perfluorooctanesulfonyl fluoride]; settings: in DMSO
Protocol: as §1

[4] = compound: FC(F)(F)C(F)(F)C(F)(F)CC1CO1 [1H,1H-Heptafluorobutyl epoxide]; settings: in DMSO
Protocol: as §1

Hexafluoroamylene glycol = compound: OCC(F)(F)C(F)(F)C(F)(F)CO [Hexafluoroamylene glycol]; settings: in DMSO
Protocol: as §1

[5] = compound: O=S(=O)(O)C(F)(F)C(F)(F)C(F)(F)C(F)(F)C(F)(F)C(F)(F)C(F)(F)C(F)(F)C(F)(F)C(F)(F)F [Sodium perfluorodecanesulfonate]; settings: in DMSO
Protocol: as §1

[6] = compound: FC(F)(F)C(F)(F)C(F)(F)C(F)(F)C(F)(F)C(F)(F)C(F)(F)I [1-Iodopentadecafluoroheptane]; settings: in DMSO
Protocol: as §1

[7] = compound: FC(F)(F)C(F)(F)C(F)(F)C(F)(F)C(F)(F)C(F)(F)CC1CO1 [3-(Perfluorohexyl)-1,2-epoxypropane]; settings: in DMSO
Protocol: as §1

Octafluoroadipamide = compound: NC(=O)C(F)(F)C(F)(F)C(F)(F)C(F)(F)C(N)=O [Octafluoroadipamide]; settings: in DMSO
Protocol: as §1

[8] = compound: C=CC(=O)OCC(F)(F)C(F)(F)C(F)(F)COC(=O)C=C [1H,1H,5H,5H-Perfluoro-1,5-pentanediol diacrylate]; settings: 6700 nM; in DMSO
Protocol: as §1

[9] = compound: FC(F)(F)C(F)(F)CNCC(F)(F)C(F)(F)F [Bis(1H,1H-perfluoropropyl)amine]; settings: in DMSO
Protocol: as §1

[10] = compound: NC(=O)C(F)(F)C(F)(F)C(F)(F)C(F)F; settings: in DMSO
Protocol: as §1

[11] = compound: O=C(O)C=CC(F)(C(F)(F)F)C(F)(F)F [3-(Perfluoroisopropyl)-2-propenoic acid]; settings: in DMSO
Protocol: as §1

Nonafluoropentanamide = compound: NC(=O)C(F)(F)C(F)(F)C(F)(F)C(F)(F)F [Nonafluoropentanamide]; settings: in DMSO
Protocol: as §1

[12] = compound: O=C(O)C(F)(F)C(F)(F)C(F)(F)C(F)(F)C(F)(F)C(F)(F)C(F)(F)C(F)(F)C(F)(F)C(F)F [11-H-Perfluoroundecanoic acid]; settings: in DMSO
Protocol: as §1

[13] = compound: NS(=O)(=O)C(F)(F)C(F)(F)C(F)(F)C(F)(F)C(F)(F)C(F)(F)F [Perfluorohexanesulfonamide]; settings: in DMSO
Protocol: as §1

[14] = compound: COC(=O)C(F)(F)C(F)(F)OC(F)(C(F)(F)F)C(F)(F)OC(F)=C(F)F [Methyl perfluoro(3-(1-ethenyloxypropan-2-yloxy)propanoate)]; settings: in DMSO
Protocol: as §1

[15] = compound: C=C(C)C(=O)OCCC(F)(F)C(F)(F)C(F)(F)C(F)(F)C(F)(F)C(F)(F)F [6:2 Fluorotelomer methacrylate]; settings: in DMSO
Protocol: as §1

Test System: BF4T:MMP-3
- level (log10) ([1]; 6700 nM): -0.0095 ± 0.074
- level (log10) ([1]; 20000 nM): -0.0015 ± 0.0035
- level (log10) ([1]; 60000 nM): 0.0515 ± 0.025
- level (log10) ([2]; 6700 nM): -0.0125 ± 0.0021
- level (log10) ([2]; 20000 nM): 0.0225 ± 0.028
- level (log10) ([2]; 60000 nM): -0.0595 ± 0.0035
- level (log10) (Heptafluorobutyl iodide; 6700 nM): 0.0245 ± 0.036
- level (log10) (Heptafluorobutyl iodide; 20000 nM): -0.02 ± 0.0014
- level (log10) (Heptafluorobutyl iodide; 60000 nM): 0.026 ± 0.017
- level (log10) ([3]; 6700 nM): -0.0015 ± 0.0021
- level (log10) ([3]; 20000 nM): -0.0095 ± 0.025
- level (log10) ([3]; 60000 nM): 0.026 ± 0.047
- level (log10) ([4]; 6700 nM): 0.003 ± 0.0028
- level (log10) ([4]; 20000 nM): 0.0005 ± 0.0035
- level (log10) ([4]; 60000 nM): -0.008 ± 0.02
- level (log10) (Hexafluoroamylene glycol; 6700 nM): -0.016 ± 0.037
- level (log10) (Hexafluoroamylene glycol; 20000 nM): -0.0205 ± 0.028
- level (log10) (Hexafluoroamylene glycol; 60000 nM): 0.011 ± 0.042
- level (log10) ([5]; 1500 nM): -0.0175 ± 0.032
- level (log10) ([5]; 4400 nM): -0.002 ± 0.0099
- level (log10) ([5]; 13000 nM): 0.0175 ± 0.0078
- level (log10) ([5]; 40000 nM): 0.054 ± 0.0042
- level (log10) ([6]; 6700 nM): -0.0345 ± 0.039
- level (log10) ([6]; 20000 nM): -0.0315 ± 0.016
- level (log10) ([7]; 6700 nM): 0.0155 ± 0.011
- level (log10) ([7]; 20000 nM): 0.018 ± 0.024
- level (log10) ([7]; 60000 nM): 0.0475 ± 0.03
- level (log10) (Octafluoroadipamide; 6700 nM): -0.0145 ± 0.0078
- level (log10) (Octafluoroadipamide; 20000 nM): -0.0145 ± 0.015
- level (log10) (Octafluoroadipamide; 60000 nM): 0.003 ± 0.038
- level (log10) [8]: 0.056 ± 0.028
- level (log10) ([9]; 6700 nM): -0.013 ± 0.0028
- level (log10) ([9]; 20000 nM): -0.0125 ± 0.0092
- level (log10) ([9]; 60000 nM): 0.001 ± 0.025
- level (log10) ([10]; 6700 nM): 0.01 ± 0.033
- level (log10) ([10]; 20000 nM): -0.005 ± 0.047
- level (log10) ([10]; 60000 nM): 0.0075 ± 0.047
- level (log10) ([11]; 6700 nM): -0.003 ± 0.014
- level (log10) ([11]; 20000 nM): -0.0035 ± 0.015
- level (log10) ([11]; 60000 nM): 0.0205 ± 0.033
- level (log10) (Nonafluoropentanamide; 6700 nM): -0.03 ± 0.0099
- level (log10) (Nonafluoropentanamide; 20000 nM): -0.0415 ± 0.012
- level (log10) (Nonafluoropentanamide; 60000 nM): -0.0105 ± 0.015
- level (log10) ([12]; 6700 nM): 0.0035 ± 0.046
- level (log10) ([12]; 20000 nM): 0.002 ± 0.028
- level (log10) ([13]; 6700 nM): -0.0185 ± 0.00071
- level (log10) ([13]; 20000 nM): -0.011 ± 0.0042
- level (log10) ([13]; 60000 nM): 0.0695 ± 0.061
- level (log10) ([14]; 6700 nM): 0.0165 ± 0.018
- level (log10) ([14]; 20000 nM): 0.102 ± 0.021
- level (log10) ([15]; 6700 nM): -0.001 ± 0.013
- level (log10) ([15]; 20000 nM): -0.0215 ± 0.028
- level (log10) ([15]; 60000 nM): 0.0055 ± 0.005

Test System: SAg:CXCL8/IL-8
- level (log10) ([1]; 6700 nM): -0.012 ± 0.025
- level (log10) ([1]; 20000 nM): 0.0325 ± 0.039
- level (log10) ([1]; 60000 nM): 0.064 ± 0.03
- level (log10) ([2]; 6700 nM): -0.011 ± 0.011
- level (log10) ([2]; 20000 nM): 0.012 ± 0.0099
- level (log10) ([2]; 60000 nM): 0.093 ± 0.016
- level (log10) (Heptafluorobutyl iodide; 6700 nM): -0.053 ± 0.04
- level (log10) (Heptafluorobutyl iodide; 20000 nM): -0.0345 ± 0.019
- level (log10) (Heptafluorobutyl iodide; 60000 nM): -0.02 ± 0.072
- level (log10) ([3]; 6700 nM): 0.039 ± 0.1
- level (log10) ([3]; 20000 nM): -0.012 ± 0.025
- level (log10) ([3]; 60000 nM): 0.012 ± 0.058
- level (log10) ([4]; 6700 nM): -0.012 ± 0.05
- level (log10) ([4]; 20000 nM): -0.011 ± 0.021
- level (log10) ([4]; 60000 nM): 0.005 ± 0.027
- level (log10) (Hexafluoroamylene glycol; 6700 nM): -0.0285 ± 0.073
- level (log10) (Hexafluoroamylene glycol; 20000 nM): -0.0175 ± 0.0092
- level (log10) (Hexafluoroamylene glycol; 60000 nM): 0.052 ± 0.035
- level (log10) ([5]; 1500 nM): 0.0165 ± 0.025
- level (log10) ([5]; 4400 nM): -0.0175 ± 0.016
- level (log10) ([5]; 13000 nM): 0.06 ± 0.0042
- level (log10) ([5]; 40000 nM): 0.126 ± 0.019
- level (log10) ([6]; 6700 nM): -0.034 ± 0.035
- level (log10) ([6]; 20000 nM): 0.0055 ± 0.073
- level (log10) ([7]; 6700 nM): -0.0135 ± 0.021
- level (log10) ([7]; 20000 nM): -0.029 ± 0.013
- level (log10) ([7]; 60000 nM): 0.0075 ± 0.026
- level (log10) (Octafluoroadipamide; 6700 nM): -0.001 ± 0.04
- level (log10) (Octafluoroadipamide; 20000 nM): 0.0075 ± 0.015
- level (log10) (Octafluoroadipamide; 60000 nM): 0.02 ± 0.0014
- level (log10) [8]: -0.259 ± 0.13
- level (log10) ([9]; 6700 nM): 0.0265 ± 0.059
- level (log10) ([9]; 20000 nM): -0.0085 ± 0.023
- level (log10) ([9]; 60000 nM): 0.0095 ± 0.053
- level (log10) ([10]; 6700 nM): -0.0055 ± 0.037
- level (log10) ([10]; 20000 nM): 0.0075 ± 0.015
- level (log10) ([10]; 60000 nM): 0.0055 ± 0.018
- level (log10) ([11]; 6700 nM): -0.0185 ± 0.005
- level (log10) ([11]; 20000 nM): -0.0015 ± 0.033
- level (log10) ([11]; 60000 nM): 0.009 ± 0.028
- level (log10) (Nonafluoropentanamide; 6700 nM): -0.0285 ± 0.039
- level (log10) (Nonafluoropentanamide; 20000 nM): -0.027 ± 0.02
- level (log10) (Nonafluoropentanamide; 60000 nM): -0.0305 ± 0.076
- level (log10) ([12]; 6700 nM): -0.0115 ± 0.019
- level (log10) ([12]; 20000 nM): -0.0115 ± 0.05
- level (log10) ([13]; 6700 nM): -0.0225 ± 0.021
- level (log10) ([13]; 20000 nM): -0.088 ± 0.0099
- level (log10) ([13]; 60000 nM): -0.237 ± 0.088
- level (log10) ([14]; 6700 nM): -0.0155 ± 0.026
- level (log10) ([14]; 20000 nM): 0.055 ± 0.15
- level (log10) ([15]; 6700 nM): 0.0095 ± 0.005
- level (log10) ([15]; 20000 nM): -0.0165 ± 0.0021
- level (log10) ([15]; 60000 nM): 0.044 ± 0.011
